Columns and labels:
GluClβ = target: T1, GluClβ (Caenorhabditis elegans, UniProt Q17328); assay: Activation of current in Xenopus oocytes expressing homomeric GluClβ (voltage clamp); assay type: cell-based, C. elegans
T1 construct: the full-length open reading frame of the GluCl cDNA encoding the GluClα (52,550 kDa) and GluClβ (49,900kDa) subunits; expressed in transfected cells; host or cells: Xenopus laevis oocytes injected with in vitro RNA
T1 sequence (Q17328 23-434): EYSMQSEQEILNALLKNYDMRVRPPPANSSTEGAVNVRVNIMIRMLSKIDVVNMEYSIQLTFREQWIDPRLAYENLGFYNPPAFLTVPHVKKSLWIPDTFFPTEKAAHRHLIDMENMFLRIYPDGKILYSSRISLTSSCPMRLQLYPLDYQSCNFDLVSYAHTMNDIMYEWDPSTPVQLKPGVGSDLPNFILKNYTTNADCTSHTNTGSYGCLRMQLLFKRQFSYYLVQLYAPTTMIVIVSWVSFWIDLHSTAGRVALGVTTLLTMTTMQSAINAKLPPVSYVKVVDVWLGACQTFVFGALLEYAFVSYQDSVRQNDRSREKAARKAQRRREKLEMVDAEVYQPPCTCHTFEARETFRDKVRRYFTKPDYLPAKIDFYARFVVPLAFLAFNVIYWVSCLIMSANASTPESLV
Procedure: (§1) Xenopus laevis oocytes were prepared and injected using standard methods previously described and known in the art [Arena, J. P., Liu. K. K., Paress, P. S. & Cully. D. F. Mol. Pharmacol. 40, 368-374 (1991 ); Arena, J. P., Liu, K. K., Paress, P. S., Schaeffer, J. M. & Cully, D. F. Mol. Brain Res. 15, 339-348 (1992)]. Adult female Xenopus laevis were anesthetized with 0.17% tricaine methanesulfonate and the ovaries were surgically removed and placed in a dish consisting of (mM): NaCl 1 82.5, KCl 2. MgCl2 1, CaCl2 1.8, HEPES 5 adjusted to pH 7.5 with NaOH (OR-2). Ovarian lobes were broken open, rinsed several times, and gently shaken in OR-2 containing 0.2% collagenase (Sigma, Type 1A) for 2-5 hours. When approximately 50% of the follicular layers were removed, Stage V and VI oocytes were selected and placed in media consisting of (mM): NaCl 86, KCl 2, MgCl2 1, CaCl2 1.8, HEPES 5, Na pyruvate 2.5, theophylline 0.5, gentamicin 0.1 adjusted to pH 7.5 with NaOH (ND-96) for 24-48 hours before injection. Oocytes were injected with 50-70 nl of poly(A^+) RNA (1 mg/ml) or 50 nl of GluClα (0.1-100 ng) and/or GluClβ (0.1-100 ng). Control oocytes were injected with 50 nl of water. Oocytes were incubated for 2-10 days in ND-96 before recording. Incubations and collagenase digestion were carried out at 18° C.
(§2) Recordings were made at room temperature 2-10 days after injection. Unless otherwise indicated recordings were made in standard frog saline consisting of (mM): NaCl 115, KCl 2, MgCl2 1, CaCl2 1.8, HEPES 10 adjusted to pH 7.5 with NaOH. Oocytes were voltage-clamped using a standard two microelectrode amplifier (Dagan 8500 or TEV-200, Minneapolis,Minn.). Pipettes were filled with 3M KCl and had resistances between 0.5-3.0 M.OMEGA.. A plexiglass recording chamber (volume 200 μl) was constantly perfused at a rate of 10 ml/min. The recording chamber was connected to ground with a Ag/AgCl electrode directly, or through a 3M KCl agar bridge when extracellular chloride was varied. For low chloride solutions NaCl was replaced with equimolar concentrations of sodium isethionic acid. For low sodium solutions NaCl was replaced with equimolar KCl or choline Cl. Data were acquired and analyzed using PCLAMP with a TL-1 interface (Axon Instruments, Foster City, Calif.). Membrane current at a holding potential of -80 mV was recorded. The amplitude of drug-sensitive current was determined by subtracting the holding current at -80 mV from the peak current obtained in the presence of drug. Data were filtered at 30 Hz and sampled at 16.6 Hz. Current/voltage relationships (I/V) and reversal potentials (Erev) were determined using a 1-3 sec voltage ramp over the voltage range of -110 to +80 mV. For the ramps, data were filtered at 0.3-3 kHz and sampled at 160 Hz. Current in drug free solution was subtracted from current in the presence of drug to obtain drug-sensitive current/voltage relationships.
(§3) Electrophysiological properties were examined in oocytes injected with in vitro RNA from pGluClα and pGluClβ (FIG. 5).

[1] = tested on: glutamate- and avermectin-sensitive chloride channel (C. elegans poly(A)+ RNA); assay: Current in Xenopus oocytes injected with C. elegans poly(A)+ RNA; assay type: cell-based; conditions: for type of drug-sensitive current: poly(A)+ RNA injected oocytes
Procedure: as §1
(§4) Recordings were made at room temperature 2-10 days after injection. Unless otherwise indicated recordings were made in standard frog saline consisting of (mM): NaCl 115, KCl 2, MgCl2 1, CaCl2 1.8, HEPES 10 adjusted to pH 7.5 with NaOH. […] Data were acquired and analyzed using PCLAMP with a TL-1 interface (Axon Instruments, Foster City, Calif.). Membrane current at a holding potential of -80 mV was recorded. The amplitude of drug-sensitive current was determined by subtracting the holding current at -80 mV from the peak current obtained in the presence of drug. […] Current/voltage relationships (I/V) and reversal potentials (Erev) were determined using a 1-3 sec voltage ramp over the voltage range of -110 to +80 mV. […]

GluCl α&β = target: T2, GluCl α&β (Caenorhabditis elegans, UniProt G5EBR3+Q17328); assay: Modulation of glutamate-sensitive current by IVMPO4, GluCl α&β injected oocytes; assay type: cell-based, C. elegans
T2 construct: the full-length open reading frame of the GluCl cDNA encoding the GluClα (52,550 kDa) and GluClβ (49,900kDa) subunits; expressed in transfected cells; host or cells: Xenopus laevis oocytes injected with in vitro RNA
T2 sequence (G5EBR3 21-461): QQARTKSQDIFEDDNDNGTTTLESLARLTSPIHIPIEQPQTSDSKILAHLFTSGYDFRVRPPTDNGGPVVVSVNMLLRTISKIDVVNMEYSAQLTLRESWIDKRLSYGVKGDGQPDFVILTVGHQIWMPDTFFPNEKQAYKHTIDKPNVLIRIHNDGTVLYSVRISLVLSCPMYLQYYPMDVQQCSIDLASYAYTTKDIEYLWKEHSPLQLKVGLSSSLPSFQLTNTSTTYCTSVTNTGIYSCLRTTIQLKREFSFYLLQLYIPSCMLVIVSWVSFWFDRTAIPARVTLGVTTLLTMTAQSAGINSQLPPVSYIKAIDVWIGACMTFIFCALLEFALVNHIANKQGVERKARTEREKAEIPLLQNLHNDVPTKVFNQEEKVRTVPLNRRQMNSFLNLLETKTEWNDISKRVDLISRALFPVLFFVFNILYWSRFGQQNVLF
T2 sequence (Q17328 23-434): T1 sequence (Q17328 23-434)
Procedure: Xenopus laevis oocytes were prepared and injected using standard methods previously described and known in the art [Arena, J. P., Liu. K. K., Paress, P. S. & Cully. D. F. Mol. Pharmacol. 40, 368-374 (1991 ); Arena, J. P., Liu, K. K., Paress, P. S., Schaeffer, J. M. & Cully, D. F. Mol. Brain Res. 15, 339-348 (1992)]. Adult female Xenopus laevis were anesthetized with 0.17% tricaine methanesulfonate and the ovaries were surgically removed and placed in a dish consisting of (mM): NaCl 1 82.5, KCl 2. MgCl2 1, CaCl2 1.8, HEPES 5 adjusted to pH 7.5 with NaOH (OR-2). Ovarian lobes were broken open, rinsed several times, and gently shaken in OR-2 containing 0.2% collagenase (Sigma, Type 1A) for 2-5 hours. […]
as §4, with “injection.” for “injection. Unless otherwise indicated recordings were made in standard frog saline consisting of (mM): NaCl 115, KCl 2, MgCl2 1, CaCl2 1.8, HEPES 10 adjusted to pH 7.5 with NaOH.”

GluClα = target: T3, GluClα (Caenorhabditis elegans, UniProt G5EBR3); assay: Activation of current in Xenopus oocytes expressing homomeric GluClα (voltage clamp); assay type: cell-based, C. elegans; set-up: the full-length open reading frame of the GluCl cDNA encoding the GluClα (52,550 kDa) and GluClβ (49,900kDa) subunits; expressed in transfected cells; host or cells: Xenopus laevis oocytes injected with in vitro RNA
T3 sequence (G5EBR3 21-461): T2 sequence (G5EBR3 21-461)
Procedure: as §1, §2, §3

Compound	response of homomeric GluClβ channels (GluClβ)	threshold for activation of homomeric GluClβ channels (GluClβ) [µM]	Hill coefficient (glutamate) (GluClβ; GluClβ)	voltage dependence of current (GluClβ; I/V, GluClβ)	EC50 (GluClβ; read-out: EC50 for glutamate, GluClβ alone) [µM]	type of drug-sensitive current [1]	Hill coefficient (glutamate) with coapplied IVMPO4 (GluCl α&β; coapplication of IVMPO4 and glutamate)	response of homomeric GluClα channels (GluClα)	sensitivity of GluClα channels to glutamate (GluClα; glutamate concentrations as high as 10 mM)	time for maximal activation of IVMPO4-sensitive current ([1]; poly(A)+ RNA) [s]	potentiation of glutamate-sensitive current (GluCl α&β; IVMPO4 5 nM) [%]	Hill coefficient (IVMPO4) (GluClα; GluClα)	EC50 (GluClα; GluClα, read-out: EC50 for IVMPO4 activation of current) [nM]	voltage dependence of current (GluClα; I/V, GluClα)	time course for IVMPO4 activation (GluClα; homomeric GluClα) [s]
N[C@@H](CCC(=O)O)C(=O)O [glutamate]	selectively responsive	50	1.9	steep outwardly rectifying voltage dependence	380	rapidly activating reversible	1.3	do not respond	insensitive						
ivermectin-4-O-phosphate [IVMPO4]	do not respond					irreversible		selectively responsive		36 ± 3	490±45	1.5	140	essentially a linear voltage dependence	18 ± 1

— US5527703A (Merck & Co., Inc., priority 1994, dated 1996)
